The values that follow come from US20120215126A1, “DETERMINING DYNAMIC AIRWAY RESPONSE IN A SUBJECT” (priority 2009, published 2012).

This assay relates to subject's respiratory system. Description: acoustic transmission (transfer function magnitude) monitoring of a subject's broncho-dynamic response. It is filed as in vivo. Particulars: FIG. 11, subject with exacerbation of asthma; combined treatment with Salbutamol and Ipratropium Bromide, treatment and recovery phase. On the procedure:
This involves introducing a sound signal having known characteristics into the airway of a subject in a step 101. The signal propagates through the lung and chest tissues to the chest wall and is detected in steps 102, 105 using one or more transducers attached to the subject at one or more locations on the thoracic surface. Preferably, baseline acoustic transmission is determined in a step 103. In a step 106, changes in the detected signal are monitored during and after administration of a broncho-effector (step 104). These changes are indicative the subject's airway response (i.e. changes in airway patency due do constriction, dilation or mucus production). The test is terminated in step 107. […] By positioning the reference transducer here, the transfer function calculated by processor 205 represents the acoustic transmission of subject's respiratory system including the lower airways, alveolar sacs, thoracic tissues etc., but excludes the effects of the apparatus used to introduce the sound (e.g. loudspeaker, tubing) and the upper airways. […] The introduced sound signal is transmitted through the subject's airways, lung parenchyma and chest wall tissues such as muscle, ribs, skin etc. and in a step 102, is detected at one or more locations on the thoracic surface. […]

Each structure is given as a SMILES string.

Take `CC(C)[N+]1(C)[C@@H]2CC[C@H]1CC(OC(=O)C(CO)c1ccccc1)C2.[Br-]` (some centres unmarked) [Ipratropium Bromide]: the airway patency result is recorded as “gradual improvement”.

Consider `CC(C)(C)NCC(O)c1ccc(O)c(CO)c1` (centres unmarked) [Salbutamol], for which the airway patency result is “gradual improvement”.
